The target in the test is B-Raf(V599E) kinase (Homo sapiens, UniProt P15056, V600E). In words: B-Raf(V599E) kinase assay B1 (construct 1, MEK1 substrate, coupled spectrophotometric). It counts as biochemical. The protocol:
The test compounds were incubated with the reaction mixtureat 30° C. for 2 h. […] The reaction rate was calculated using the […] time frame. […] IC50 values were calculated from a series of percent inhibition values determined at a range of inhibitor concentrations using software routines as implemented in the GraphPad Prism software package.

The mark [1] stands for this setting: Method B1, read-out: B-Raf Data.

SMILES strings stand for the structures. Like-named read-outs stand apart in the source and are kept apart here.

Sequence of B-Raf(V599E) kinase (P15056 with tags, fused parts or gaps V600E): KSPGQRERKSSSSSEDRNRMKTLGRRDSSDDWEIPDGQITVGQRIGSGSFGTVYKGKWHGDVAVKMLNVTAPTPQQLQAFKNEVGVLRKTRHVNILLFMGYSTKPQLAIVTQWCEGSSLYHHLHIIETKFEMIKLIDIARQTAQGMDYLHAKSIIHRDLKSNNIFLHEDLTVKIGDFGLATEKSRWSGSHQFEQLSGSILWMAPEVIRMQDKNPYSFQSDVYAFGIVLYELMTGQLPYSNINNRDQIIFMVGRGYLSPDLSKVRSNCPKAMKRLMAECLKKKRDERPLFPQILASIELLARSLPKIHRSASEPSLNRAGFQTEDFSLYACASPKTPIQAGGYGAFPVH

For the compound `O=C(O)Cc1cccc(-n2nc(-c3cccs3)cc2NC(=O)Nc2cccc(Cl)c2Cl)c1` [Example 366, 2-(3-(5-(3-(2,3-dichlorophenyl)-ureido)-3-(thiophen-2-yl)-1H-pyrazol-1-yl)phenyl)acetic acid], the IC50 under setting [1] was found to be 157 nM.

Compound `COc1ccc(-n2nc(C(C)(C)C)cc2NC(=O)Nc2cccc(C(F)(F)F)c2)cc1` [Example 238, 1-[3-t-butyl-1-(4-methoxyphenyl)-1H-pyrazol-5-yl]-3-(3-trifluoromethylphenyl)urea] showed an IC50 of 65 nM.

For `CCOC(=O)Cc1cc(-n2nc(C(C)(C)C)cc2NC(=O)Nc2ccc(Cl)cc2)cc2ccccc12` [Example 298, (3-{3-t-butyl-5-[3-(4-chlorophenyl)ureido]pyrazol-1-yl}naphthalen-1-yl)acetic acid ethyl ester], the IC50 amounted to 83 nM.

`CC(C)(C)c1cc(NC(=O)Nc2cccc(F)c2F)n(-c2ccc3[nH]c(=O)ccc3c2)n1` [Example 329, 1-(3-t-butyl-1-(2-oxo-1,2-dihydroquinolin-6-yl)-1H-pyrazol-5-yl)-3-(2,3-difluorophenyl)urea] registered an IC50 of 4.2 nM.

In turn, `CC(C)(C)c1cc(NC(=O)Nc2ccc(Cl)cc2)n(-c2ccc3c(c2)C(=O)NCC3)n1` [Example 309, 1-[3-t-butyl-1-(1-oxo-1,2,3,4-tetrahydroiso-quinolin-7-yl)-1H-pyrazol-5-yl]-3-(4-chlorophenyl)urea] had an IC50 of 249 nM.

On to `COC(=O)Cc1cc(-n2nc(C(C)(C)C)cc2NC(=O)Nc2ccccc2)cc2ccccc12` [Example 299, {3-[3-t-butyl-5-(3-phenylureido)pyrazol-1-yl]naphthalen-1-yl}acetic acid methyl ester], for which the IC50 amounted to 20 nM.

With `Cc1cc(NC(=O)Nc2cc(C(C)(C)C)nn2-c2ccc3c(c2)C(=O)NCC3)no1` [Example 314, 1-(3-t-butyl-1-(1-oxo-1,2,3,4-tetrahydroiso-quinolin-7-yl)-1H-pyrazol-5-yl)-3-(5-methylisoxazol-3-yl)urea], the IC50 amounted to 266 nM.

Compound `CC(C)(C)c1cc(NC(=O)NC2CCCCC2)n(-c2cc(CO)c3ccccc3c2)n1` [Example 292, 1-(3-t-butyl-1-(4-(hydroxymethyl)naphthalen-2-yl)-1H-pyrazol-5-yl)-3-cyclohexylurea] showed an IC50 of 22 nM.

In turn, `CC(C)(C)c1cc(NC(=O)Nc2cccc(F)c2F)n(-c2cc(CO)c3ccccc3c2)n1` [Example 294] gave an IC50 of 3.3 nM.

Compound `CC(C)(C)c1cc(NC(=O)Nc2cc(F)c(F)c(F)c2)n(-c2cc(CC(N)=O)c3ccccc3c2)n1` [Example 92, 1-(1-(4-(2-amino-2-oxoethyl)naphthalen-2-yl)-3-t-butyl-1H-pyrazol-5-yl)-3-(3,4,5-trifluorophenyl)urea] showed an IC50 of 8.2 nM.

As for `CC(C)(C)c1cc(NC(=O)Nc2ccc(Cl)cc2)n(-c2cccc(CCN)c2)n1` [Example 255, 1-{1-[3-(2-aminoethyl)phenyl]-3-t-butyl-1H-pyrazol-5-yl}-3-(4-chlorophenyl)urea], the IC50 came to 86 nM.

Consider `CC(C)(C)c1cc(NC(=O)NC2CCCC2)n(-c2cc(CC(N)=O)c3ccccc3c2)n1` [Example 93, 1-(1-(4-(2-amino-2-oxoethyl)naphthalen-2-yl)-3-t-butyl-1H-pyrazol-5-yl)-3-cyclopentylurea], for which the IC50 came to 60 nM.

`CC(C)(C)c1cc(NC(=O)Nc2cccc(Br)c2)n(-c2cccc(CO)c2)n1` [Example 223, 1-{3-t-butyl-1-[3-(hydroxymethyl)phenyl]-1H-pyrazol-5-yl}-3-(3-bromophenyl)urea]: the IC50 came to 54 nM.

As for `CC(C)(C)c1cc(NC(=O)Nc2ccc(F)c(F)c2F)n(-c2cccc(CC(N)=O)c2)n1` [Example 435, 1-(1-(3-(2-amino-2-oxoethyl)phenyl)-3-t-butyl-1H-pyrazol 5-yl)-3-(2,3,4-trifluorophenyl)urea], under setting [1], the IC50 is 7.3 nM.

`CC(C)(C)c1cc(NC(=O)Nc2ccc(Cl)cc2)n(-c2cc(CC(=O)O)c3ccccc3c2)n1` [Example 300, (3-{3-t-butyl-5-[3-(4-chlorophenyl)ureido]pyrazol-1-yl}naphthalen-1-yl)acetic acid] showed an IC50 of 9.2 nM.

Take `CC(C)(C)c1cc(NC(=O)Nc2ccc(F)cc2)n(-c2cccc(Cn3c(=O)[nH]n(-c4ccccc4)c3=O)c2)n1` [Example 272, 1-(3-t-butyl-1-{3-[(3,5-dioxo-1-phenyl-1,2,4-triazolidin-4-yl)methyl]phenyl}-1H-pyrazol-5-yl)-3-(4-fluorophenyl)urea]: the IC50 amounted to 61 nM.

The compound `CC(C)(C)c1cc(NC(=O)Nc2cccc(Oc3ccccc3)c2)n(-c2ccc3c(c2)CCC(=O)N3)n1` [Example 325, 1-(3-t-butyl-1-(2-oxo-1,2,3,4-tetrahydro-quinolin-6-yl)-1H-pyrazol-5-yl)-3-(3-phenoxyphenyl)urea] yielded an IC50 of 4.5 nM.

In turn, `COc1cccc(-n2nc(C(C)(C)C)cc2NC(=O)Nc2cccc(Cl)c2)c1` [Example 231, 1-(3-t-butyl-1-(3-methoxyphenyl)-1H-pyrazol-5-yl)-3-(3-chlorophenyl)urea] gave an IC50 of 27 nM.

For the compound `CC(C)(C)c1cc(NC(=O)Nc2ccc3c(c2)OCO3)n(-c2cccc(CCN)c2)n1` [Example 253, 1-{1-[3-(2-aminoethyl)phenyl]-3-t-butyl-1 H-pyrazol-5-yl}-3-(benzo[d][1,3]dioxol-5-yl)urea], the IC50 stood at 75 nM.

Take `O=C(O)Cc1cccc(-n2nc(C3CCCC3)cc2NC(=O)Nc2cccc(Cl)c2Cl)c1` [Example 368, 2-(3-(3-cyclopentyl-5-(3-(2,3-dichlorophenyl)-ureido)-1H-pyrazol-1-yl)phenyl)acetic acid]: the IC50 under setting [1] turned out to be 6.2 nM.

In the case of `CC(C)(C)c1cc(NC(=O)Nc2cccc(Cl)c2Cl)n(-c2ccc(CC(N)=O)cc2)n1` [Example 492, 1-(1-(4-(2-amino-2-oxoethyl)phenyl)-3-t-butyl-1H-pyrazol-5-yl)-3-(2,3-dichlorophenyl)urea], the IC50 was found to be 6.4 nM.

As to `CC(C)(C)c1cc(NC(=O)Nc2cccc(-c3cnccn3)c2)n(-c2cccc(CC(N)=O)c2)n1` [Example 437, 1-(1-(3-(2-amino-2-oxoethyl)phenyl)-3-t-butyl-1H-pyrazol-5-yl)-3-(3-(pyrazin-2-yl)phenyl)urea], the IC50 under setting [1] turned out to be 279 nM.

For the compound `CC(C)(C)c1cc(NC(=O)Nc2ccc(Cl)cc2)n(-c2cccc(CN3C(=O)C(=O)N(c4ccccc4)C3=O)c2)n1` [Example 269, 1-(3-t-butyl-1-(3-[(2,4,5-trioxo-3-phenylimidazolidin-1-yl)methyl]phenyl}-1H-pyrazol-5-yl)-3-(4-chlorophenyl)urea], the IC50 turned out to be 279 nM.

Take `CC(C)(C)c1cc(NC(=O)Nc2cccc(F)c2F)n(-c2ccc3c(c2)CCN(S(C)(=O)=O)C3)n1` [Example 328, 1-(3-t-butyl-1-(2-(methylsulfonyl)-1,2,3,4-tetrahydroisoquinolin-6-yl)-1H-pyrazol-5-yl)-3-(2,3-difluorophenyl)urea]: the IC50 is 25 nM.

As to `CC(C)(C)c1cc(NC(=O)Nc2cc(F)c(F)cc2F)n(-c2ccc3c(c2)CCC(=O)N3)n1` [Example 323, 1-(3-t-butyl-1-(2-oxo-1,2,3,4-tetrahydro-quinolin-6-yl)-1H-pyrazol-5-yl)-3-(2,4,5-trifluorophenyl)urea], the IC50 came to 3.4 nM.

Take `CC(C)(C)c1cc(NC(=O)Nc2ccc(F)c(F)c2)n(-c2cccc(CC(N)=O)c2)n1` [Example 436, 1-(1-(3-(2-amino-2-oxoethyl)phenyl)-3-t-butyl-1H-pyrazol-5-yl)-3-(3,4-difluorophenyl)urea]: the IC50 was 18 nM.

`CC(C)(C)c1cc(NC(=O)Nc2ccc(F)c(F)c2F)n(-c2ccc3c(c2)CCC(=O)N3)n1` [Example 322, 1-(3-t-butyl-1-(2-oxo-1,2,3,4-tetrahydro-quinolin-6-yl)-1H-pyrazol-5-yl)-3-(2,3,4-trifluorophenyl)urea] came in with an IC50 of 4.1 nM.

Regarding `CC(C)(C)c1cc(NC(=O)Nc2ccccc2F)n(-c2cc(CO)c3ccccc3c2)n1` [Example 291, 1-(3-t-butyl-1-(4-(hydroxymethyl)naphthalen-2-yl)-1H-pyrazol-5-yl)-3-(2-fluorophenyl)urea], the IC50 was determined as 5.3 nM.

As to `COc1cccc(-n2nc(C(C)(C)C)cc2NC(=O)Nc2ccc(F)cc2)c1` [Example 230, 1-(3-t-butyl-1-(3-methoxyphenyl)-1H-pyrazol-5-yl)-3-(4-fluorophenyl)urea], the IC50 turned out to be 52 nM.

The compound `CC(C)(C)c1cc(NC(=O)Nc2ccc(F)cc2F)n(-c2ccc3ncccc3c2)n1` [Example 284, 1-(3-t-butyl-1-(quinolin-6-yl)-1H-pyrazol-5-yl)-3-(2,4-difluorophenyl)urea] gave an IC50 of 8.5 nM.

Take `CC(C)(C)c1cc(NC(=O)Nc2ccccc2F)n(-c2cccc(CC(=O)O)c2)n1` [Example 371, 2-(3-(3-t-butyl-5-(3-(2-fluorophenyl)-ureido)-1H-pyrazol-1-yl)phenyl)acetic acid]: the IC50 is 10 nM.

The compound `CC(C)(C)c1cc(NC(=O)Nc2ccc3c(c2)OCO3)n(-c2cccc(CO)c2)n1` [Example 221, 1-(benzo[d][1,3]dioxol-5-yl)-3-(3-t-butyl-1-(3-(hydroxymethyl)phenyl)-1H-pyrazol-5-yl)urea] yielded an IC50 of 88 nM.

`COc1cccc(-n2nc(C(C)(C)C)cc2NC(=O)Nc2ccc3c(c2)OCO3)c1` [Example 234, 1-(benzo[d][1,3]dioxo-5-yl)-3-(3-t-butyl-1-(3-methoxyphenyl)-1H-pyrazol-5-yl)urea] gave an IC50 of 32 nM.

`CC(C)(C)c1cc(NC(=O)Nc2ccc3c(c2)OCO3)n(-c2cccc(CC(=O)O)c2)n1` [Example 372, 2-(3-{5-[3-(benzo[1,3]dioxol-5-yl)ureido]-3-t-butyl-1H-pyrazol-1-yl}phenyl)acetic acid]: the IC50 is 27 nM.

Turning to `CCOC(=O)Cc1cccc(-n2nc(C(C)(C)C)cc2NC(=O)Nc2ccc3c(c2)OCO3)c1` [Example 247, ethyl 2-(3-{5-[3-(benzo[d][1,3]dioxol-5-yl)ureido]-3-t-butyl-1H-pyrazol-1-yl}phenyl)-acetate], the IC50 stood at 70 nM.

These data come from patent publication US8163756B2 (priority 2004, dated 2012).
